Experiment in all cases: inhibition of tumour cell growth, NCI panel, 48 h
Assay [1] deals with NCI/ADR-RES ovarian.
In assay [2] the test system is SF-539 CNS.
The subject of assay [3] is RPMI-8226 leukemia.
The subject of assay [4] is SN12C renal.
In assay [5] the test system is NCI-H460 lung.
The subject of assay [6] is SNB-19 CNS.
The test system of assay [7] is OVCAR-4 ovarian.
Assay [8] concerns HS 578T breast.

Structures are written as SMILES. Where “and” joins values, the source holds several entries; their conditions need not be identical. Equal entries are not always repeated.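 All cell lines were grown in 96-well plates and treated with compound for 48 hours. Here, GI50 denotes the concentration required for 50% inhibition of growth. TGI: total growth inhibition.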

Turning to `O=C(O)c1ccc(NS(=O)(=O)c2cccc3cccnc23)cc1`, the GI50 was more than 100 µM in assay [1]; more than 100 µM in assay [2]; more than 100000 nM in assay [3]; more than 100 µM in assay [4]; more than 100 µM in assay [5]; more than 100 µM in assay [6]. In addition, the GI50 in assay [7] and in assay [8] was more than 100 µM in each case. Also, the TGI in assay [1], in assay [2], in assay [3], in assay [4], in assay [5] and in assay [6] was more than 100 µM in each case. The TGI in assay [7] and in assay [8] was more than 100 µM in each case.

In the case of `CCN(CC)CCCC(C)Nc1cnc(C(=O)Nc2cc(F)cc3cccnc23)cn1` (configuration not stated), the GI50 in assay [1] was 7.27 µM and 2.6 µM; in assay [2], 10.3 µM and 1.52 µM; in assay [3], 2970 nM and 502 nM; in assay [4], 6.4 µM and 1.23 µM; in assay [5] it was 4.64 µM and 2.06 µM; in assay [6], 10.5 µM and 1.73 µM. In addition, the GI50 in assay [7] was 2.24 µM and 0.35 µM; in assay [8], 3.97 µM and 2.15 µM. Also, the TGI is 21.6 µM and 11.2 µM in assay [1]; 22.2 µM and 2.89 µM in assay [2]; 12.2 µM and > 20.5 µM in assay [3]; 19.3 µM and 2.54 µM in assay [4]; 16.6 µM and 4.22 µM in assay [5]; 22.8 µM and 3.14 µM in assay [6]. Moreover, the TGI in assay [8] was 21.1 µM and 6.62 µM.

With `COc1ccc(C2=C(c3cn(C)c4ccccc34)C(=O)NC2=O)cc1OC`, the GI50 in assay [1] is 7.99 µM; in assay [2], 5.51 µM; in assay [3], 9610 nM; in assay [4], 8.91 µM; in assay [5], 8.52 µM; in assay [6], more than 25 µM. Besides, the GI50 in assay [7] was 10.6 µM; in assay [8] it was 3.85 µM. The TGI in assay [1] was more than 25 µM; in assay [2], more than 18.1 µM; in assay [3], more than 25 µM; in assay [4] it was more than 25 µM; in assay [5] it was more than 25 µM; in assay [6] it was more than 25 µM. Also, the results for the TGI in assay [7] and in assay [8] were more than 25 µM and more than 20.6 µM, respectively.

In the case of `O=C(Nc1ccc(Nc2ccncc2)cc1)c1ccc(Nc2ccnc3ccc([N+](=O)[O-])cc23)cc1`, the GI50 in assay [1] is more than 100 µM; in assay [2], more than 100 µM; in assay [3], more than 100000 nM; in assay [4], more than 100 µM; in assay [5], 6.27 µM; in assay [6], more than 100 µM. In addition, the GI50 in assay [7] and in assay [8] was more than 100 µM throughout. The TGI in assay [1], in assay [2], in assay [3], in assay [4], in assay [5] and in assay [6] was more than 100 µM in each case. Besides, the TGI in assay [7] and in assay [8] was more than 100 µM throughout.

On to `COC[C@H]1OC(=O)c2coc3c2[C@@]1(C)C1=C(C3=O)[C@@H]2CCC(=O)[C@@]2(C)C[C@H]1OC(C)=O`, for which the TGI is more than 100 µM in assay [1]; 31 µM in assay [2]; more than 63.6 µM in assay [3]; more than 100 µM in assay [4]; more than 100 µM in assay [5]; more than 100 µM in assay [6]. Also, the TGI is more than 100 µM in assay [7] and 6.9 µM in assay [8]. Also, the GI50 in assay [7] is 18.6 µM; in assay [8], 0.341 µM.

Regarding `COc1ccc(/C=C(\C#N)c2cc(OC)c3c(c2)OCO3)cc1`, the GI50 was less than 0.01 µM in assay [1]; less than 0.0131 µM in assay [2]; 19 nM in assay [3]; 0.0583 µM in assay [4]; less than 0.01 µM in assay [5]; 0.0278 µM in assay [6]. For the same compound, the GI50 in assay [7] is 0.0617 µM; in assay [8] it was 0.01 µM. Besides, the TGI in assay [1] was 0.58 µM; in assay [2], 11.5 µM; in assay [3], 27 µM; in assay [4] it was more than 100 µM; in assay [5] it was 4.28 µM; in assay [6], more than 100 µM. The TGI in assay [7] was more than 66.6 µM; in assay [8], 39.1 µM.

Regarding `Cc1ccc2c(=O)[nH]sc2c1`, the TGI in assay [1] is 55.8 µM; in assay [2], 26.9 µM; in assay [3], 45.1 µM; in assay [4], 22.7 µM; in assay [5], more than 100 µM; in assay [6], more than 100 µM. For the same compound, the figures for the TGI in assay [7] and in assay [8] were more than 100 µM and 40 µM, respectively.

As to `Cn1c(=O)c2[nH]c(COCc3nc4c([nH]3)c(=O)n(C)c(=O)n4C)nc2n(C)c1=O`, the TGI in assay [1], in assay [2], in assay [3], in assay [4], in assay [5] and in assay [6] was more than 100 µM in each case. Moreover, the TGI in assay [7] and in assay [8] was more than 100 µM in each case.

As to `Cc1ccc(C(=O)N/N=C/c2cccc(Oc3ccccc3)c2)cn1`, the GI50 in assay [1] is 4.43 µM; in assay [2], 10.6 µM; in assay [3], 2660 nM; in assay [4], 17.3 µM; in assay [5] it was 4.05 µM; in assay [6], 10.3 µM. Further, the GI50 in assay [7] is 26.6 µM; in assay [8], 6.74 µM. For the same compound, the TGI in assay [1] is more than 71.4 µM; in assay [2], more than 59.1 µM; in assay [3], 8.58 µM; in assay [4], more than 100 µM; in assay [5] it was more than 100 µM; in assay [6], more than 100 µM. In addition, the TGI in assay [7] and in assay [8] was more than 100 µM each time.

For `CC1(C)N=C(N)N=C(N)N1c1cccc(CCCCc2ccc(S(=O)(=O)F)cc2Cl)c1`, the GI50 is 76 µM in assay [1]; 2.06 µM in assay [2]; 10800 nM in assay [3]; 0.834 µM in assay [4]; 0.465 µM in assay [5]; 1.64 µM in assay [6]. For the same compound, the GI50 was 13.9 µM in assay [7] and 43.2 µM in assay [8]. Moreover, the TGI in assay [1] was more than 100 µM; in assay [2] it was 20.1 µM; in assay [3] it was 41.9 µM; in assay [4], 22.5 µM; in assay [5], more than 38.6 µM; in assay [6] it was 20.6 µM. Besides, the TGI in assay [7] and in assay [8] was more than 100 µM each time.

Source of the values: PubChem BioAssay (NCI).
